Structures can show the parent of a compound that is named as a salt.
Assays:
[1] = test system: pentagastrin stimulated gastric acid secretion; assay: Rat lumen perfused stomach (pentagastrin stimulated gastric acid secretion); format: in vivo; conditions: iv, i.v. administration, 10 μmole/kg, read-out: Rat G.S. % inhibition @ 10 μmole/kg
From the text: Using a modification of the procedure described by Ghosh and Schild (Br. J. Pharmacology, 13, 54, 1958), the compounds of the following Examples were found on i.v. administration at a concentration of 10 μmole/kg to cause an inhibition of pentagastrin stimulated gastric acid secretion as indicated in the following Table.

isolated rat osteoclasts = assay: Bone resorption by isolated rat osteoclasts on cortical bone slices; format: cell-based; conditions: Osteoclast, 18 hours, control = 100 ± 27, Mean ± SEM, n = 12
Protocol: Bone resorption was measured by the actions of isolated rat osteoclasts on cortical bone slices (Zaidi et al Quarterly Journal of Experimental Physiology 1988 73:471-485). Newborn Wistar rats were killed by decapitation and their femora and tibiae removed. Osteoclasts were mechanically disaggregated by curetting the bones into medium followed by agitation with a pipette. Osteoclasts were separated from other cells by sedimentation onto bone slices (15 minutes, 37°) after which the slices were removed and gently washed. The bone slices were then incubated in the presence of test compounds (37°, 10% humidified CO2, 18 hours) and fixed with glutaraldehyde. The degree of bone resorption was then assessed by the area of erosions produced by the osteoclasts using scanning electron microscopy. Data were meaned from measurements of 6 bone slices in each of two independent experiments.
Test compounds were dissolved in ethanol which was also added to control incubations (1%) in the absence of compound.

SMILES	inhibition in vivo at 10 µmol/kg [1]	further results
COc1cccc2c(Nc3ccccc3C)nc(N)nc12 [Example 1, 2-amino-8-methoxy-4-(2-methylphenylamino)quinazoline]	60%	–
COc1cccc2c(NCc3ccccc3)nc(N)nc12 [Example 2, 2-amino-8-methoxy-4-benzylaminoquinazoline]	25%	–
COc1ccc(Nc2nc(N)nc3c(OC)cccc23)c(C)c1 [Example 3, 2-amino-8-methoxy-4-(2-methyl-4-methoxyphenylamino)quinazoline]	16%	–
COc1cccc2c(NCc3ccccc3C)nc(N)nc12 [Example 4, 2-amino-8-methoxy-4-(2-methylbenzylamino)quinazoline]	37%	–
COc1cccc2c(Nc3ccccc3C)nc(N(C)C)nc12 [Example 5, 2-dimethylamino-8-methoxy-4-(2-methylphenylamino)quinazoline]	37%	–
Cc1ccccc1Nc1nc(N)nc2c(C)cccc12 [Example 6, 2-amino-8-methyl-4-(2-methylphenylamino)quinazoline]	48%	–
Cc1ccccc1Nc1nc(N)nc2ccccc12 [Example 7, 2-amino-4-(2-methylphenylamino)quinazoline]	20%	–
Cc1ccccc1Nc1nc(N2CCCC2)nc2ccccc12 [Example 8, 2-pyrrolidino-4-(2-methylphenylamino)quinazoline]	17%	–
CCc1ccc2nc(N)nc(Nc3ccccc3C)c2c1 [Example 11, 2-amino-4-(2-methylphenylamino)-6-ethylquinazoline]	28%	–
CNc1nc(Nc2ccccc2C)c2cccc(OC)c2n1 [Example 13, 2-methylamino-8-methoxy-4-(2-methylphenylamino)quinazoline]	20%	–
COc1cccc2c(Nc3ccccc3C)nc(N3CCCC3)nc12 [Example 15, 2-pyrrolidino-8-methoxy-4-(2-methylphenylamino)quinazoline]	31%	–
Cc1ccccc1Nc1nc(NCCc2ccccc2)nc2ccccc12 [Example 16, 2-phenylethylamino-4-(2-methylphenylamino)quinazoline]	31%	–
COc1ccccc1Nc1nc(N)nc2c(OC)cccc12 [Example 18, 2-amino-8-methoxy-4-(2-methoxyphenylamino)quinazoline]	12%	–
CN(c1ccccc1)c1nc(N(C)c2ccccc2)c2ccccc2n1 [Example 20, 2,4-Bis-(N-methylphenylamino)quinazoline hydrochloride]	72%	–
COc1cccc2c(Nc3ccccc3C)nc(N(C)c3ccccc3)nc12 [Example 21, 2-(N-methylphenylamino)-4-(2-methylphenylamino)-8-methoxyquinazoline]	37%	–
Cc1ccccc1Nc1nc(N(C)c2ccccc2)nc2ccccc12 [Example 22, 2-(N-methylphenylamino)-4-(2-methylphenylamino)quinazoline hydrochloride]	27%	–
COc1cccc2c(N(C)c3ccccc3)nc(Nc3ccccc3C)nc12 [Example 24, 4-(N-methylphenylamino)-2-(2-methylphenylamino)-8-methoxyquinazoline]	97%	–
Cc1ccccc1CNc1nc(N)nc2ccccc12 [Example 25, 2-amino-4-(2-methylbenzylamino)quinazoline]	24%	–
Cc1ccccc1Nc1nc(N(C)c2ccccc2)c2ccccc2n1 [Example 26, 2-(2-methylphenylamino)-4-(N-methylphenylamino)quinazoline hydrochloride]	79%	–
CN(c1ccccc1)c1nc(Nc2ccccc2)nc2ccccc12 [Example 27, 2-phenylamino-4-(N-methylphenylamino)quinazoline hydrochloride]	71%	–
COc1cccc2c(N(C)c3ccccc3)nc(N)nc12 [Example 29, 2-amino-4-(N-methylphenylamino)-8-methoxyquinazoline hydrochloride]	13%	–
Cc1cc(O)ccc1Nc1nc(N(C)c2ccccc2)c2ccccc2n1 [Example 30, 2-(4-hydroxy-2-methylphenyl)amino1-4-(N-methylphenylamino) quinazoline hydrochloride]	23%	–
Cc1ccccc1CNc1nc(N(C)c2ccccc2)c2ccccc2n1 [Example 31, 2-(2-methvlbenzylamino)-4-(N-methylphenylamino)quinazoline hydrochloride]	8%	–
Cc1cc(F)ccc1Nc1nc(N(C)c2ccccc2)c2ccccc2n1 [Example 32, 2-(2-methyl-4-fluorophenyl)amino]-4-(N-methylphenylamino)quinazoline hydrochloride]	96%	–
Cc1cc(F)ccc1Nc1nc(N(C)c2ccccc2)c2cc(O)ccc2n1 [Example 56, 4-(N-methylphenylamino)-2-[(2-methyl-4-fluorophenyl)amino]-6-hydroxyquinazoline hydrochloride]	–	activity at 10 µM (isolated rat osteoclasts; 10 μM): 7 ± 4%; activity at 100 µM (isolated rat osteoclasts; 100 μM): 7%
